Reference: PMC12472391, “Borylated Five-Membered Ring Iminosugars: Synthesis, Spectroscopic Analysis, and Biological Evaluation for Glycosidase Inhibition and Anticancer Properties for Application in Boron Neutron Capture Therapy (BNCT)—Part 1” (Pharmaceuticals, 2025)

Assays:
Format in all cases: biochemical
[1] = system: N-acetyl-β-D-glucosaminidase (bovine kidney); experiment: Glycosidase inhibition, Table 7; conditions: 1 mg/mL aqueous solution added, 27 °C, run in water
Method: (§1) All enzymes and para-nitrophenyl substrates were purchased from Sigma. Enzymes were assayed at 27 °C in citric acid (0.1M)/disodium hydrogen phosphate (0.2 M) buffers at the optimum pH for the enzyme. The incubation mixture consisted of […] enzyme solution, […] of 1 mg/mL aqueous solution of extract, and […] of the appropriate 5 mM para-nitrophenyl substrate made up in buffer at the optimum pH for the enzyme. The reactions were stopped by the addition of […] 0.4 M glycine (pH 10.4) during the exponential phase of the reaction, which had been determined at the beginning using uninhibited assays in which water replaced the inhibitor. Final absorbances were read at 405 nm using a Versamax microplate reader (Molecular Devices). Assays were carried out in triplicate, and the values given are the means of the three replicates per assay. All reactions run in water.

[2] = system: α-D-glucosidase (Bacillus); experiment: Glycosidase inhibition, Table 7; conditions: 1 mg/mL aqueous solution added, 27 °C, run in water
Method: as §1

[3] = target: T1, α-D-mannosidase (Jack bean) (Canavalia ensiformis, UniProt C0HJB3); experiment: Glycosidase inhibition, Table 7; conditions: 1 mg/mL aqueous solution added, 27 °C, run in water; for inhibition at 1000 µg/mL (stock): read-out: α-D-Mannosidase Jack Bean, percentage inhibition
T1 construct: purchased Sigma
T1 sequence (C0HJB3 1-981): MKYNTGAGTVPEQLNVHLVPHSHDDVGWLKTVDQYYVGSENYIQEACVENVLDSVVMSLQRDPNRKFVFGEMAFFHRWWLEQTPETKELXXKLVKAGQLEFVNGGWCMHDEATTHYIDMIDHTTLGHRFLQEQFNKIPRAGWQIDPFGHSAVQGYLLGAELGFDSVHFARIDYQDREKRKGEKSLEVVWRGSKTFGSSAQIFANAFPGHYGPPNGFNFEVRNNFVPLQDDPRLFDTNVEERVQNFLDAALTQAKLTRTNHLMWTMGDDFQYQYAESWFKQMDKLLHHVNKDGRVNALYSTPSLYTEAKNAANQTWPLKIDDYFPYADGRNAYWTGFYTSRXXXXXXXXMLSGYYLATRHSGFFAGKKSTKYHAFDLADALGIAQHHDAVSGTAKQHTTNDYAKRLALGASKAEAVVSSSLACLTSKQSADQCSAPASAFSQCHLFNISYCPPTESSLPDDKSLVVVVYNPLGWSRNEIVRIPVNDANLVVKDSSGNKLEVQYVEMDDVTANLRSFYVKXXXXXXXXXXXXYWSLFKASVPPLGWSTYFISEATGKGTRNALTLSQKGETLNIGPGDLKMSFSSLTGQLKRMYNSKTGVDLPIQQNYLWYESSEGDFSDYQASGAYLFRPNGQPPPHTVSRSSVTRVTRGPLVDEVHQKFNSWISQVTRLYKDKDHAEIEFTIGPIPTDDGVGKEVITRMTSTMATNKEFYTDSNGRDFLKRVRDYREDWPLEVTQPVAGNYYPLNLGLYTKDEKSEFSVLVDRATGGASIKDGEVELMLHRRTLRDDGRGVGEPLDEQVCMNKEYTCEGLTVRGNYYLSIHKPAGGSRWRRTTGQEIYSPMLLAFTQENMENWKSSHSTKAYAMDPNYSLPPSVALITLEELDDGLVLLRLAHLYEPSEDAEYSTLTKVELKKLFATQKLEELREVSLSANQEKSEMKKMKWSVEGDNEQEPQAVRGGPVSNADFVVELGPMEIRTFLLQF
Method: as §1

[4] = system: panel of eight glycosidases; experiment: Glycosidase inhibition, whole panel of Table 7; conditions: 1 mg/mL aqueous solution added
Method: as §1

[5] = target: α-D-glucosidase (human lysosome) (Homo sapiens, UniProt P10253); experiment: Glycosidase inhibition, Table 6 footnote
[6] = target: β-D-glucosidase (human lysosome) (Homo sapiens, UniProt P04062); experiment: Glycosidase inhibition, Table 6 footnote
[7] = target: β-D-galactosidase (E. coli) (Escherichia coli, UniProt P00722); experiment: Glycosidase inhibition, Table 6 footnote; conditions: read-out: β-D-galactosidase (E. coli), inhibition % at 100 μM
[8] = system: N-acetyl-β-D-hexosaminidase (rat intestine); experiment: Glycosidase inhibition, Table 7; conditions: 1 mg/mL aqueous solution added, 27 °C, run in water
Method: as §1

[9] = system: α-D-glucosidase (rat intestine); experiment: Glycosidase inhibition, Table 7; conditions: 1 mg/mL aqueous solution added, 27 °C, run in water
Method: as §1

[10] = system: panel of 15 glycosidases; experiment: Glycosidase inhibition, whole panel of Table 6; conditions: at 100 or 1000 μM
Text: The enzymes α-D-glucosidase (from yeast), β-D-glucosidases (from almond and bovine liver), α-D-galactosidase (from coffee beans), β-D-galactosidase (from bovine liver), α-D-mannosidase (from Jack bean), β-D-mannosidase (from snail), α-L-rhamnosidase (from Penicillium decumbens), α-L-fucosidase (from bovine kidney), trehalase (from porcine kidney), β-D-glucuronidases (from E. coli and bovine liver), amyloglucosidase (from A. niger), para-nitrophenyl glycosides, and various disaccharides were purchased from Sigma-Aldrich Co. (St. Louis, MO, USA).
Brush border membranes were prepared from the rat small intestine according to the method of Kessler et al., and were assayed at pH 6.8 for rat intestinal maltase using maltose. For rat intestinal maltase, porcine kidney trehalase, and A. niger amyloglucosidase activities, the reaction mixture contained maltose (25 mM) and the appropriate amount of enzyme, and the incubations were performed for 10–30 min at 37 °C. The reaction was stopped by heating at 100 °C for 3 min. […] The absorbance at 505 nm was measured to determine the amount of the released D-glucose. Other glycosidase activities were determined using an appropriate para-nitrophenyl glycoside as substrate at the optimum pH of each enzyme. […] The released para-nitrophenol was measured spectrometrically at 400 nm. […]

β-D-galactosidase (E. coli), sequence (P00722 2-1024): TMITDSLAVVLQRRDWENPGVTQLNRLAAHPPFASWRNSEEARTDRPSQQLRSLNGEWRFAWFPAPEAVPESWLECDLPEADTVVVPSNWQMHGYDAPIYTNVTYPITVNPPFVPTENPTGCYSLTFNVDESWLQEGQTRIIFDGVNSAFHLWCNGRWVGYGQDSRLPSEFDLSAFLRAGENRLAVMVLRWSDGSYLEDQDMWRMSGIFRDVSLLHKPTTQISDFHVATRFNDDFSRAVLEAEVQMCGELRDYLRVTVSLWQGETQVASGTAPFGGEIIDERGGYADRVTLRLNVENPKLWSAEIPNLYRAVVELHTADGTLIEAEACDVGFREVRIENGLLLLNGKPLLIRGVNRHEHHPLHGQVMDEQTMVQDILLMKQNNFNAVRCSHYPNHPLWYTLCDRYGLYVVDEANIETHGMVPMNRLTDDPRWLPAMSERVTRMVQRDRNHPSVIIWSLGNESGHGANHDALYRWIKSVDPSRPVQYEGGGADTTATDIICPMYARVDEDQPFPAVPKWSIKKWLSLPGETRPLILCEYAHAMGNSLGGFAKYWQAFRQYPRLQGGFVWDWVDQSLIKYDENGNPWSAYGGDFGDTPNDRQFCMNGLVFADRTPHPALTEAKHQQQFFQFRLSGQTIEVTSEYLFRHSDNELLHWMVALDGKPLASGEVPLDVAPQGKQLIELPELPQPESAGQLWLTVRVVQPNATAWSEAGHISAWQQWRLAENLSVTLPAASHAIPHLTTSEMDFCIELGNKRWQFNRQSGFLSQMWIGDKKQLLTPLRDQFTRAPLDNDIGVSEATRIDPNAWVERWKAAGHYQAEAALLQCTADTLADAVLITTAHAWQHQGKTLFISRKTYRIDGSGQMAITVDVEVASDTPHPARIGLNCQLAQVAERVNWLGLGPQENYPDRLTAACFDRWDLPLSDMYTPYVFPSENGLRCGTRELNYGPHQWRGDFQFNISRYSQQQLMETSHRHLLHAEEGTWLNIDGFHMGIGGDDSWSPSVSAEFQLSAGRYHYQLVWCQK
β-D-glucosidase (human lysosome), sequence (P04062 40-536): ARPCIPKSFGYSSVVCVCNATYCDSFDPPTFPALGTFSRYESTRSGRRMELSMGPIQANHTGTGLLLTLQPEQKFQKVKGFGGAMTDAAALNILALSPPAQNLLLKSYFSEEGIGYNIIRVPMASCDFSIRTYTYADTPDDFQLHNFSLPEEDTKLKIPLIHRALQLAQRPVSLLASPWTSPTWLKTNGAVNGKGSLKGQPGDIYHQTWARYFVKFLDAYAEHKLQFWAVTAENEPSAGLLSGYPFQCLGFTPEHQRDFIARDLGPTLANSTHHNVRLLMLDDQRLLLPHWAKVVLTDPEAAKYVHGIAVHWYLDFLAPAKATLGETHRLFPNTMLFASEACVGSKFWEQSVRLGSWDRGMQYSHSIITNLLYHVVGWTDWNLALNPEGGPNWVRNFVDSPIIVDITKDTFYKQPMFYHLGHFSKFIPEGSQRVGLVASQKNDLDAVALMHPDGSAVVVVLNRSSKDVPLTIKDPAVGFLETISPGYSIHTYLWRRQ

Compound | N-Acetyl-β-D-glucosaminidase Bovine Kidney, percentage inhibition [1] [%] | α-D-Glucosidase Bacillus, percentage inhibition [2] [%] | inhibition at 1000 µg/mL (stock) [3] [%] | inhibitions across the panel (Table 7) [4] | N-Acetyl-β-D-hexosaminidase Rat Intestine, percentage inhibition [8] [%] | other results
N[C@@H](Cc1ccc(B(O)O)cc1)C(=O)O [BPA, 4-borono-L-phenylalanine, reference compound] | 6.7 | 19.9 | 0.6 | below 30% | – | –
CC1(C)O[C@H]2O[C@H]3[C@@H]([C@H]2O1)N(Cc1ccccc1)C[C@H]3O [Compound 3, N-Benzyl-3,6-dideoxy-3,6-imino-1,2-O-isopropylidene-α-D-gulofuranose] | −0.1 | −43.2 | -30.6 | – | – | –
OC1O[C@@H]2[C@H]([C@H]1O)N(Cc1ccccc1)C[C@H]2O (stereo partly drawn) [Compound 4, N-Benzyl-3,6-dideoxy-3,6-imino-D-gulofuranose] | −9.1 | −37.9 | -12.1 | – | – | –
OC[C@H](O)[C@@H]1[C@H](O)[C@H](O)CN1Cc1ccccc1 [Compound 5, N-Benzyl-1,4-dideoxy-1,4-imino-L-gulitol] | – | – | – | – | −1.5 | inhibition at 100 µM [5]: 0%; inhibition at 100 µM [6]: 2.91%; inhibition at 100 µM [7]: 0%; α-D-Glucosidase Rat Intestine, percentage inhibition [9]: −1.3%; percent inhibitions in the panel (Table 6) [10]: do not provide a strong degree of inhibition
N[C@@H](Cc1ccc(B(O)O)cc1)C(=O)O [^10B-BPA, reference compound] | 6.3 | 19.5 | – | below 30% | – | α-D-Mannosidase Jack Bean, percentage inhibition [3]: −0.7%
CC1(C)O[C@H]2O[C@H]3[C@@H]([C@H]2O1)N(Cc1ccc(B2OC(C)(C)C(C)(C)O2)cc1)C[C@H]3O [para 6, N-(4-Methylphenylboronic acid pinacol ester)-3,6-dideoxy-3,6-imino-1,2-O-isopropylidene-α-D-gulofuranose] | – | – | – | – | – | percent inhibitions in the panel (Table 6) [10]: do not provide a strong degree of inhibition
OB(O)c1ccc(CN2CC(O)C3OC(O)C(O)C32)cc1 [para 7, N-(4-Methylphenylboronic acid)-3,6-dideoxy-3,6-imino-D-gulofuranose] | – | – | – | – | 4.4 | α-D-Glucosidase Rat Intestine, percentage inhibition [9]: −5.4%
OC[C@H](O)[C@@H]1[C@H](O)[C@H](O)CN1Cc1ccc(B(O)O)cc1 [para 8, N-(4-Methylphenylboronic acid)-1,4-dideoxy-1,4-imino-L-gulitol] | – | – | – | – | 2.6 | –
borocaptate sodium [BSH, reference compound] | 37.1 | 48.1 | – | 31.6–65.9% | – | α-D-Mannosidase Jack Bean, percentage inhibition [3]: −18.7%
